Tests used:
[1] = tested on: Gram positive bacteria, Gram negative bacteria, and fungi; assay: Kill of microbes by dissolved chlorhexidine / chlorhexidine acetate (stated, no test protocol)
[2] = 60 kilogram person; cited from earlier work

In the case of `CC(=O)O.CC(=O)O.NC(=N\CCCCCC/N=C(N)/N=C(\N)Nc1ccc(Cl)cc1)/N=C(\N)Nc1ccc(Cl)cc1` [chlorhexidine acetate], the “concentration that can quickly kill most microbes” value ([1]; Gram positive bacteria, Gram negative bacteria, and fungi) is listed as “greater than 200 μg/mL”, the “time to kill microbes” value ([1]; at concentration greater than 200 μg/mL, in many cases) is listed as “under 1 minute” and the “dose considered safe for direct injection into bloodstream” value [2] is listed as no less than 500 µg.
